# Laboratory results as given in patent publication US5264593A, “Cholesterol lowering compounds” (Merck & Co., Inc., priority 1993, dated 1993).
# Molecular target: T1, squalene synthetase (human HepG2 cell enzyme) (Homo sapiens, UniProt P37268)
# T1 construct: SOURCE: HEPG2 CELL LINE (Liver, hepatoblastoma, Human) ATCC No. HB 8065; endogenous in cells; host or cells: HepG2 (ATCC HB 8065), sonicated cell extract
# T1 sequence (P37268 1-417): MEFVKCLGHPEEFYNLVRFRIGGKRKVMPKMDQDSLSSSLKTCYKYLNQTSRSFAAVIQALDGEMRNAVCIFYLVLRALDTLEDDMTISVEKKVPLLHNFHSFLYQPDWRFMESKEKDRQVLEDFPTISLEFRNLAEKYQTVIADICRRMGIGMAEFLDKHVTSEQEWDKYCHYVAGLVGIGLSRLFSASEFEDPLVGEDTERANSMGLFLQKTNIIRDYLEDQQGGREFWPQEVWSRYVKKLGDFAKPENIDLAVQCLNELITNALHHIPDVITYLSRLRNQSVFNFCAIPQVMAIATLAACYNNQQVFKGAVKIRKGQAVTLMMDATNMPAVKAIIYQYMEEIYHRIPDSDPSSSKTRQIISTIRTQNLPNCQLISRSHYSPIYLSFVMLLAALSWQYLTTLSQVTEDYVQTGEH
# Experiment: Squalene Synthase Assay (human HepG2 cell enzyme, 3H-farnesyl pyrophosphate substrate)
# Format: biochemical
# Details: 3 μM 3H-farnesyl pyrophosphate, pH 7.5, 30° C., 20 minutes
# Protocol: The intrinsic squalene synthetase inhibitory activity of the compounds of this invention was measured by the standard in vitro protocol described below:
# PREPARATION OF HUMAN HepG2 cell ENZYME
# 1. SOURCE: HEPG2 CELL LINE (Liver, hepatoblastoma, Human) ATCC No. HB 8065
# 2. CELL GROWTH AND MAINTENANCE
# Culture Medium: Minimum essential medium (MEM) with non-essential amino acids, sodium pyruvate, and 10% fetal bovine serum. The medium was changed twice weekly. […] The growth medium is prepared as listed below.
# Subculture Procedure: Remove medium, wash with PBS, add fresh trypsin (0.25%)-EDTA (0.02%) with Hank's Balanced Salt solution and let flask stand for a minute and remove the trypsin solution. Incubate flask at 37° C. until cells detached. Add fresh medium, disperse and dispense cells into new flasks. Subcultivation ratio: 1:6.
# PREPARATION of Delipidated Serum: Fetal calf serum (100 ml) and CAB-O-Sil (2 grams) stir overnight at 4° C. and centrifuge at 16,000 rpm for 5 hrs. […]
# For each reaction, 55 μl of buffer mixture was taken with 5 μl of an inhibitor solution in DMSO and 10 μl of diluted enzyme (1 to 250 as described in the enzyme preparation, the final protein concentration of enzyme in the assay is 2 μg per ml.). […] 150 μl of heptane layer was then removed into a 96 deep well plate and mixed with 150 μl of scintillation fluid and the radioactivity was determined by liquid scintillation counting. […]
row,SMILES,IC50
1,"C=C(CCC12OCC(OC(C)=O)C(C(=O)O)(O1)C(OC(=O)/C=C/C(C)CC(C)CC)C2O)C(OC(C)=O)C(C)Cc1ccccc1 (stereo not drawn) [Example 1, 4-Acetate of 3,4-decarboxy-4-epi-Zaragozic Acid A]",2.95 nM
2,"C=C(CCC12OCC(OC(=O)C(C)(C)C)C(C(=O)O)(O1)C(OC(=O)/C=C/C(C)CC(C)CC)C2O)C(OC(C)=O)C(C)Cc1ccccc1 (stereo not drawn) [Example 2, 4-Trimethylacetate of 3,4-decarboxy-4-epi-Zaragozic Acid A]",58.2 nM
